Source: patent US8987459B2, “Compounds for the treatment of conditions associated with DGAT1 activity” (Novartis AG, priority 2013, dated 2015)
Converted amounts (≈) assume the structure as drawn. Structures can show the parent of a compound that is named as a salt. Where two headings read alike, the source gives them in different places. Marks after values point to notes of the source that are not given here.

Experiments:
Efficacious AUC in dog = type: in vivo; conditions: plasma, 0.3 mg/kg, at 0.3 mpk
Description: (§1) With a meglumine salt suspension at 100 mg/kg, about 33% decrease in plasma exposure was observed compared to solid dispersion. […] The solid dispersion formulation has several technical challenges which can be avoided by using a 2-((1R,4R)-4-(4-(5-(benzo[d]oxazol-2-ylamino)pyridin-2-yl)phenyl)cyclohexyl)acetic acid meglumine Form A suspension-based formulation.

[1] = Intrinsic dissolution rate; type: physicochemical
[2] = Solubility in buffers, biorelevant media and water
[3] = Hygroscopicity (relative humidity); type: physicochemical; conditions: for Change in crystallinity (PXRD): listed under hygroscopicity
[4] = Efficacious dose in preclinical species; type: in vivo
Description: (§2) A standard capsule formulation with 2-((1R,4R)-4-(4-(5-(benzo[d]oxazol-2-ylamino)pyridin-2-yl)phenyl)cyclohexyl)acetic acid meglumine is the recommended CSF strategy to support the projected efficacious dose range in human (11-120 mg) based on following observations: • Low efficacious dose of 2-((1R,4R)-4-(4-(5-(benzo[d]oxazol-2-ylamino)pyridin-2-yl)phenyl)cyclohexyl)acetic acid in preclinical species (0.1-0.3 mg/kg) • High exposure multiples in preclinical species (rat and dog) from a suspension formulation of 2-((1R,4R)-4-(4-(5-(benzo[d]oxazol-2-ylamino)pyridin-2-yl)phenyl)cyclohexyl)acetic acid meglumine • Aqueous kinetic solubility of 2-((1R,4R)-4-(4-(5-(benzo[d]oxazol-2-ylamino)pyridin-2-yl)phenyl)cyclohexyl)acetic acid meglumine can be further improved (20-60 fold) from simple physical blend with polymers and/or surfactants • Improvement in exposure and dose linearity from 2-((1R,4R)-4-(4-(5-(benzo[d]oxazol-2-ylamino)pyridin-2-yl)phenyl)cyclohexyl)acetic acid meglumine over the sodium salt

[5] = Oral exposure and bioavailability in rat; type: in vivo; conditions: for dose linearity: suspension
Description: (§3) Direct in vivo comparison of 2-((1R,4R)-4-(4-(5-(benzo[d]oxazol-2-ylamino)pyridin-2-yl)phenyl)cyclohexyl)acetic acid meglumine and 2-((1R,4R)-4-(4-(5-(benzo[d]oxazol-2-ylamino)pyridin-2-yl)phenyl)cyclohexyl)acetic acid sodium salt suspensions were performed in rat and mouse. […] From this preclinical data, it was confirmed that 2-((1R,4R)-4-(4-(5-(benzo[d]oxazol-2-ylamino)pyridin-2-yl)phenyl)cyclohexyl)acetic acid meglumine is a better performing salt.

[6] = Oral bioavailability in mouse; type: in vivo; conditions: suspension at 30 mg/kg
Description: as §3

[7] = Aqueous kinetic solubility, physical blend with polymers and/or surfactants; type: physicochemical; conditions: simple physical blend with polymers and/or surfactants
Description: as §2

[8] = Oral exposure and bioavailability in dog; type: in vivo
Description: as §1

[9] = background statement, no medium given

O=C(O)C[C@H]1CC[C@H](c2ccc(-c3ccc(Nc4nc5ccccc5o4)cn3)cc2)CC1 [Free acid, 2-((1R,4R)-4-(4-(5-(benzo[d]oxazol-2-ylamino)pyridin-2-yl)phenyl)cyclohexyl)acetic acid]
AUC (Efficacious AUC in dog): 0.132 µM·h | intrinsic dissolution (in words) [1, 9]: low | Intrinsic Dissolution Rate ([1]; pH 4.5 (50 mM Acetate)): 0.013 mg min^−1 cm^−2 | Intrinsic Dissolution Rate ([1]; pH 6.8 (50 mM Phosphate)): BLQ | Solubility ([2]; 50 mM acetate buffer, pH 4.8, aqueous buffer, Solubility [mg/ml], pH 4.8 (50 mM Acetate)): < 0.5 µg/mL | pH final of solubility sample ([2]; FaSSIF V2): (6.34) | Solubility ([2]; FaSSIF V2, fassif, Solubility [mg/ml], FaSSIF V2): 20 µg/mL (≈ 46.8 µM) | Solubility ([2]; FeSSIF V2): 60 µg/mL (≈ 140 µM) | pH final of solubility sample ([2]; FeSSIF V2): (5.53) | pH final of solubility sample ([2]; SGF pH 2.0): (2.38) | Solubility ([2]; SGF, pH 2, simulated gastric fluid, Solubility [mg/ml], SGF pH 2.0): < 0.5 µg/mL | Solubility ([2]; Water): 10 µg/mL (≈ 23.4 µM) | pH final of solubility sample ([2]; Water): (7.63) | solubility (in words) [2, 9]: low | Solubility ([2]; pH 1 (0.1N HCl)): <0.5 µg/mL | pH final of solubility sample ([2]; pH 1 (0.1N HCl)): (1.59) | pH final of solubility sample ([2]; pH 4.8 (50 mM Acetate)): (4.76) | Solubility ([2]; pH 6.5 (50 mM Phosphate)): <0.5 µg/mL | pH final of solubility sample ([2]; pH 6.5 (50 mM Phosphate)): (6.87) | Hygroscopicity [%] 0-40% r.h. [3]: 0.136% | Hygroscopicity [%] 0-95% r.h. [3]: 0.251% | Change in crystallinity (PXRD) [3]: No | efficacious dose in preclinical species [4]: 0.1 to 0.3 mg/kg

C[N+](C)(C)CCO.O=C(O)C[C@H]1CC[C@H](c2ccc(-c3ccc(Nc4nc5ccccc5o4)cn3)cc2)CC1.O=C([O-])C[C@H]1CC[C@H](c2ccc(-c3ccc(Nc4nc5ccccc5o4)cn3)cc2)CC1 [Hemi-choline, 2-((1R,4R)-4-(4-(5-(benzo[d]oxazol-2-ylamino)pyridin-2-yl)phenyl)cyclohexyl) acetate Hemi-choline salt]
Solubility (pH 1): 0.14 mg/mL | pH final of solubility sample (pH 1): (1.06) | Solubility (pH 2): 0.095 mg/mL | pH final of solubility sample (pH 2): (1.05) | Solubility (pH 4.8): 0.015 mg/mL | pH final of solubility sample (pH 4.8): (4.76) | Solubility (pH 6.5): 0.03 mg/mL | pH final of solubility sample (pH 6.5): (7.15) | Intrinsic Dissolution Rate ([1]; pH 4.5 (50 mM Acetate)): BLQ | Hygroscopicity [%] 0-40% r.h. [3]: 1.44% | Hygroscopicity [%] 0-95% r.h. [3]: 15.95% | Change in crystallinity (PXRD) [3]: No

O=C(O)C[C@H]1CC[C@H](c2ccc(-c3ccc(Nc4nc5ccccc5o4)cn3)cc2)CC1 [Meglumine Form A, Meglumine salt of 2-((1R,4R)-4-(4-(5-(benzo[d]oxazol-2-ylamino)pyridin-2-yl)phenyl)cyclohexyl)acetic acid]
Intrinsic Dissolution Rate ([1]; pH 4.5 (50 mM Acetate)): BLQ | Intrinsic Dissolution Rate ([1]; pH 6.8 (50 mM Phosphate)): BLQ | Solubility ([2]; FaSSIF V2): 10 µg/mL | pH final of solubility sample ([2]; FaSSIF V2): (6.86) | Solubility ([2]; FeSSIF V2): 1 µg/mL | pH final of solubility sample ([2]; FeSSIF V2): (6.26) | Solubility ([2]; SGF pH 2.0): <0.5 µg/mL | pH final of solubility sample ([2]; SGF pH 2.0): (2.37) | Solubility ([2]; Water): 70 µg/mL | pH final of solubility sample ([2]; Water): (10.4) | Solubility ([2]; pH 1 (0.1N HCl)): 150 µg/mL | pH final of solubility sample ([2]; pH 1 (0.1N HCl)): (2.79) | Solubility ([2]; pH 4.8 (50 mM Acetate)): <0.5 µg/mL | pH final of solubility sample ([2]; pH 4.8 (50 mM Acetate)): (4.88) | Solubility ([2]; pH 6.5 (50 mM Phosphate)): 40 µg/mL | pH final of solubility sample ([2]; pH 6.5 (50 mM Phosphate)): (7.27) | Hygroscopicity [%] 0-40% r.h. [3]: 0.162% | Hygroscopicity [%] 0-95% r.h. [3]: 0.588% | Change in crystallinity (PXRD) [3]: No

O=C([O-])C[C@H]1CC[C@H](c2ccc(-c3ccc(Nc4nc5ccccc5o4)cn3)cc2)CC1.[K+] [Potassium, 2-((1R,4R)-4-(4-(5-(benzo[d]oxazol-2-ylamino)pyridin-2-yl)phenyl)cyclohexyl) acetate Potassium salt]
Solubility ([2]; FaSSIF V2): 95 µg/mL | pH final of solubility sample ([2]; FaSSIF V2): (8.32) | Solubility ([2]; SGF pH 2.0): 3 µg/mL | pH final of solubility sample ([2]; SGF pH 2.0): (3.73) | Solubility ([2]; Water): 1050 µg/mL | pH final of solubility sample ([2]; Water): (10.3) | Solubility ([2]; pH 1 (0.1N HCl)): 50 µg/mL | pH final of solubility sample ([2]; pH 1 (0.1N HCl)): (3.89) | Solubility ([2]; pH 4.8 (50 mM Acetate)): <0.5 µg/mL | pH final of solubility sample ([2]; pH 4.8 (50 mM Acetate)): (4.90) | Solubility ([2]; pH 6.5 (50 mM Phosphate)): <0.5 µg/mL | pH final of solubility sample ([2]; pH 6.5 (50 mM Phosphate)): (7.29) | Hygroscopicity [%] 0-40% r.h. [3]: 4.52% | Hygroscopicity [%] 0-95% r.h. [3]: 21.77% | Change in crystallinity (PXRD) [3]: No

O=C([O-])C[C@H]1CC[C@H](c2ccc(-c3ccc(Nc4nc5ccccc5o4)cn3)cc2)CC1.[Na+] [Sodium, 2-((1R,4R)-4-(4-(5-(benzo[d]oxazol-2-ylamino)pyridin-2-yl)phenyl)cyclohexyl) acetate sodium salt]
dose linearity ([5]; 30 and 100 mg/kg): not dose linear | bioavailability ([5]; suspension at 30 mg/kg): 7.6% | bioavailability ([5]; suspension at 100 mg/kg): 4.6% | Solubility ([2]; FaSSIF V2): 7 µg/mL | pH final of solubility sample ([2]; FaSSIF V2): (7.47) | Solubility ([2]; FeSSIF V2): 3 µg/mL | pH final of solubility sample ([2]; FeSSIF V2): (5.66) | Solubility [mg/ml] ([2]; SGF pH 2.0): 0.062* mg/ml | pH final of solubility sample ([2]; SGF pH 2.0): (9.13) | Solubility ([2]; Water): 23 µg/mL | pH final of solubility sample ([2]; Water): (9.3) | Solubility ([2]; pH 1 (0.1N HCl)): <0.5 µg/mL | pH final of solubility sample ([2]; pH 1 (0.1N HCl)): (1.03) | Solubility ([2]; pH 4.8 (50 mM Acetate)): <0.5 µg/mL | pH final of solubility sample ([2]; pH 4.8 (50 mM Acetate)): (5.08) | Solubility ([2]; pH 6.5 (50 mM Phosphate)): 0.6 µg/mL | pH final of solubility sample ([2]; pH 6.5 (50 mM Phosphate)): (8.5) | Hygroscopicity [%] 0-40% r.h. [3]: 13.1% | Hygroscopicity [%] 0-95% r.h. [3]: 16.2% | Change in crystallinity (PXRD) [3]: No | bioavailability [6]: 9.6%

O=C(O)C[C@H]1CC[C@H](c2ccc(-c3ccc(Nc4nc5ccccc5o4)cn3)cc2)CC1 [meglumine salt, meglumine salt of 2-((1R,4R)-4-(4-(5-(benzo[d]oxazol-2-ylamino)pyridin-2-yl)phenyl)cyclohexyl)acetic acid]
dose linearity ([5]; 30 and 100 mg/kg): dose linear | dose linearity ([5]; 300 mpk): non-linear | bioavailability ([5]; in vivo, oral, 300 mg/kg, suspension at 300 mpk, read-out: bioavailability): 1.9% | bioavailability ([5]; in vivo, oral, suspension at 30 mg/kg, read-out: bioavailability): 3.1% | bioavailability ([5]; in vivo, oral, suspension at 100 mg/kg, read-out: bioavailability): 3.8% | improvement of aqueous kinetic solubility [7]: 20-60 fold | bioavailability ([6]; in vivo, oral, read-out: bioavailability): 17.3% | bioavailability ([8]; plasma, po, 30 mg/kg solution dose (sodium material dissolved in 10% HPβCD in purified water or PBS), read-out: Absolute oral bioavailability): 1.5% | decrease in plasma exposure compared to solid dispersion ([8]; suspension at 100 mg/kg): about 33% | exposure over the efficacious AUC ([8]; suspension at 100 mg/kg): ~150 ×
